Assay results: patent publication US12318477B2, “Injectable and inhalable formulations” (CYBIN UK LTD, priority 2021, dated 2025)
Marks after values point to notes of the source that are not given here.

How the values were obtained:
[1] = pH-stability in 40 mM Britton-Robinson buffer: content (assay) by HPLC
[2] = pH-stability in 40 mM Britton-Robinson buffer: related substances; assay type: physicochemical
[3] = test system: human brain activity; settings: human volunteers; cited from earlier work
[4] = Solubility of 20 mg/mL DMT fumarate in Britton-Robinson buffer at varied pH
[5] = pH-stability in 40 mM Britton-Robinson buffer: pH measurement; assay type: physicochemical; settings: for pH: Day 17 (10 days storage at 40° C. followed by 7 days at 50° C.)
Text: On preparation of each formulation, there was a drop in pH in the range of 0.14 units (pH 4 formulation) to 1.29 units (pH 9 formulation) this being due to the acidic nature of the drug substance.

[6] = nominal pH 4.0, Day 17 (10 days storage at 40° C. followed by 7 days at 50° C.)
[7] = nominal pH 5.0, Day 17 (10 days storage at 40° C. followed by 7 days at 50° C.)
[8] = nominal pH 6.0, Day 17 (10 days storage at 40° C. followed by 7 days at 50° C.)
[9] = nominal pH 6.5, Day 17 (10 days storage at 40° C. followed by 7 days at 50° C.)
[10] = nominal pH 7.0, Day 17 (10 days storage at 40° C. followed by 7 days at 50° C.)
[11] = nominal pH 7.0 sparged N2, Day 17 (10 days storage at 40° C. followed by 7 days at 50° C.)
[12] = nominal pH 7.5, Day 17 (10 days storage at 40° C. followed by 7 days at 50° C.)
[13] = nominal pH 8.0, Day 17 (10 days storage at 40° C. followed by 7 days at 50° C.)
[14] = nominal pH 9.0, Day 17 (10 days storage at 40° C. followed by 7 days at 50° C.)

In the case of `CN(C)CCc1c[nH]c2ccccc12.O=C(O)/C=C/C(=O)O` [SPL026, N,N-dimethyltryptamine (DMT) fumarate salt], the “concentration change on storage” value ([1]; all formulations pH 4 to 9 (nominal), Day 7 or Day 17) is reported as “no significant concentration changes”, the Concentration ([1]; nominal pH 4.0, Day 7 (7 days storage at 40° C.)) is reported as 2.57 mg/mL and the Concentration [1, 6] is reported as 2.52 mg/mL. It also gave a Concentration ([1]; nominal pH 4.0, Initial) of 2.47 mg/mL, a Concentration ([1]; nominal pH 5.0, Day 7 (7 days storage at 40° C.)) of 2.48 mg/mL and a Concentration [1, 7] of 2.52 mg/mL. It also gave a Concentration ([1]; nominal pH 5.0, Initial) of 2.50 mg/mL, a Concentration ([1]; nominal pH 6.0, Day 7 (7 days storage at 40° C.)) of 2.56 mg/mL and a Concentration [1, 8] of 2.48 mg/mL. The Concentration ([1]; nominal pH 6.0, Initial) was 2.51 mg/mL, the Concentration ([1]; nominal pH 6.5, Day 7 (7 days storage at 40° C.)) was 2.59 mg/mL and the Concentration [1, 9] was 2.51 mg/mL. For the same compound, the Concentration ([1]; nominal pH 6.5, Initial) was 2.49 mg/mL, the Concentration ([1]; nominal pH 7.0, Day 7 (7 days storage at 40° C.)) was 2.54 mg/mL and the Concentration [1, 10] was 2.45 mg/mL. The Concentration ([1]; nominal pH 7.0, Initial) was 2.54 mg/mL, the Concentration ([1]; nominal pH 7.0 UV Light, Initial) was 2.54 mg/mL and the Concentration ([1]; nominal pH 7.0 UV Light, on completion of light stressing (200 watt hours UVA, 0.6 million luxhours)) was 2.26^a mg · mL^−1. For the same compound, the Concentration ([1]; nominal pH 7.0 sparged N2, Day 7 (7 days storage at 40° C.)) was 2.54 mg/mL, the Concentration [1, 11] was 2.51 mg/mL and the Concentration ([1]; nominal pH 7.0 sparged N2, Initial) was 2.54 mg/mL. For the same compound, the Concentration ([1]; nominal pH 7.5, Day 7 (7 days storage at 40° C.)) was 2.55 mg/mL, the Concentration [1, 12] was 2.46 mg/mL and the Concentration ([1]; nominal pH 7.5, Initial) was 2.50 mg/mL. It also gave a Concentration ([1]; nominal pH 8.0, Day 7 (7 days storage at 40° C.)) of 2.49 mg/mL, a Concentration [1, 13] of 2.42 mg/mL and a Concentration ([1]; nominal pH 8.0, Initial) of 2.49 mg/mL. The Concentration ([1]; nominal pH 9.0, Day 7 (7 days storage at 40° C.)) was 2.41 mg/mL, the Concentration [1, 14] was 2.46 mg/mL and the Concentration ([1]; nominal pH 9.0, Initial) was 2.47 mg/mL. The “related substances peaks at preparation” value ([2]; all formulations, […]) was “no related substances peaks were present”, the Total related substances [2, 6] was “ND (ND—<0.02 area of total peak area)” and the Total related substances [2, 7] was 0.07%. It also gave a Total related substances [2, 8] of 0.09%, a Total related substances [2, 9] of 0.10% and a Total related substances [2, 10] of 0.26%. It also gave a Total related substances ([2]; nominal pH 7.0 UV Light, on completion of light stressing (200 watt hours UVA, 0.6 million luxhours), fumarate salt) of 1.68%, a Total related substances [2, 11] of 0.05% and a Total related substances [2, 12] of 0.42%. For the same compound, the Total related substances [2, 13] was 0.58%, the Total related substances [2, 14] was 0.61% and the “number of related substances peaks” value ([2]; pH 4, after 17 days storage) was “no peaks”. For the same compound, the “robustness of nitrogen sparged formulation versus unsparged equivalent” value ([2]; pH 7, after 17 days storage) was “significantly more robust”, the “number of related substances peaks” value ([2]; pH 9, after 17 days storage) was 3 and the “Individual related substance, percentage area of total peak area” value ([2]; relative retention time 0.54, nominal pH 7 UV light (200 watt hours UVA, 0.6 million luxhours)) was 0.05%. The “Individual related substance, percentage area of total peak area” value ([2]; relative retention time 0.62, nominal pH 7 UV light (200 watt hours UVA, 0.6 million luxhours)) was 0.17%, the “Individual related substance, percentage area of total peak area” value ([2]; relative retention time 0.64, nominal pH 7 UV light (200 watt hours UVA, 0.6 million luxhours)) was 0.54% and the “Individual related substance, percentage area of total peak area” value ([2]; relative retention time 0.73, nominal pH 7, Day 17 (10 days storage at 40° C., 7 days storage at 50° C.)) was 0.09%. For the same compound, the “Individual related substance, percentage area of total peak area” value ([2]; relative retention time 0.73, nominal pH 7 UV light (200 watt hours UVA, 0.6 million luxhours)) was 0.23%, the “Individual related substance, percentage area of total peak area” value ([2]; relative retention time 0.73, nominal pH 7.5, Day 17 (10 days storage at 40° C., 7 days storage at 50° C.)) was 0.14% and the “Individual related substance, percentage area of total peak area” value ([2]; relative retention time 0.73, nominal pH 8, Day 17 (10 days storage at 40° C., 7 days storage at 50° C.)) was 0.15%. For the same compound, the “Individual related substance, percentage area of total peak area” value ([2]; relative retention time 0.73, nominal pH 9, Day 17 (10 days storage at 40° C., 7 days storage at 50° C.)) was 0.12%, the “Individual related substance, percentage area of total peak area” value ([2]; relative retention time 0.74, nominal pH 7 UV light (200 watt hours UVA, 0.6 million luxhours)) was 0.15% and the “Individual related substance, percentage area of total peak area” value ([2]; relative retention time 0.77, nominal pH 7 UV light (200 watt hours UVA, 0.6 million luxhours)) was 0.06%. The “Individual related substance, percentage area of total peak area” value ([2]; relative retention time 0.91, nominal pH 7, Day 17 (10 days storage at 40° C., 7 days storage at 50° C.)) was 0.05%, the “Individual related substance, percentage area of total peak area” value ([2]; relative retention time 0.91, nominal pH 7.5, Day 17 (10 days storage at 40° C., 7 days storage at 50° C.)) was 0.07% and the “Individual related substance, percentage area of total peak area” value ([2]; relative retention time 0.91, nominal pH 8, Day 17 (10 days storage at 40° C., 7 days storage at 50° C.)) was 0.09%. For the same compound, the “Individual related substance, percentage area of total peak area” value ([2]; relative retention time 0.91, nominal pH 9, Day 17 (10 days storage at 40° C., 7 days storage at 50° C.)) was 0.11%, the “Individual related substance, percentage area of total peak area” value ([2]; relative retention time 0.95, nominal pH 8, Day 17 (10 days storage at 40° C., 7 days storage at 50° C.)) was 0.05% and the “Individual related substance, percentage area of total peak area” value ([2]; relative retention time 1.11, nominal pH 7.5, Day 17 (10 days storage at 40° C., 7 days storage at 50° C.)) was 0.12%. The “Individual related substance, percentage area of total peak area” value ([2]; relative retention time 1.11, nominal pH 8, Day 17 (10 days storage at 40° C., 7 days storage at 50° C.)) was 0.22%, the “Individual related substance, percentage area of total peak area” value ([2]; relative retention time 1.11, nominal pH 9, Day 17 (10 days storage at 40° C., 7 days storage at 50° C.)) was 0.12% and the “Individual related substance, percentage area of total peak area” value ([2]; relative retention time 1.17, nominal pH 7 UV light (200 watt hours UVA, 0.6 million luxhours)) was 0.18%. For the same compound, the “Individual related substance, percentage area of total peak area” value ([2]; relative retention time 1.20, nominal pH 7 UV light (200 watt hours UVA, 0.6 million luxhours)) was 0.13%, the “Individual related substance, percentage area of total peak area” value ([2]; relative retention time 1.56, nominal pH 5, Day 17 (10 days storage at 40° C., 7 days storage at 50° C.)) was 0.07% and the “Individual related substance, percentage area of total peak area” value ([2]; relative retention time 1.56, nominal pH 6, Day 17 (10 days storage at 40° C., 7 days storage at 50° C.)) was 0.09%. For the same compound, the “Individual related substance, percentage area of total peak area” value ([2]; relative retention time 1.56, nominal pH 6.5, Day 17 (10 days storage at 40° C., 7 days storage at 50° C.)) was 0.10%, the “Individual related substance, percentage area of total peak area” value ([2]; relative retention time 1.56, nominal pH 6.5 with N2 (sparged with nitrogen), Day 17 (10 days storage at 40° C., 7 days storage at 50° C.)) was 0.05% and the “Individual related substance, percentage area of total peak area” value ([2]; relative retention time 1.56, nominal pH 7, Day 17 (10 days storage at 40° C., 7 days storage at 50° C.)) was 0.12%. The “Individual related substance, percentage area of total peak area” value ([2]; relative retention time 1.56, nominal pH 7 UV light (200 watt hours UVA, 0.6 million luxhours)) was 0.10%, the “Individual related substance, percentage area of total peak area” value ([2]; relative retention time 1.56, nominal pH 7.5, Day 17 (10 days storage at 40° C., 7 days storage at 50° C.)) was 0.09% and the “Individual related substance, percentage area of total peak area” value ([2]; relative retention time 1.56, nominal pH 8, Day 17 (10 days storage at 40° C., 7 days storage at 50° C.)) was 0.07%. For the same compound, the “Individual related substance, percentage area of total peak area” value ([2]; relative retention time 1.56, nominal pH 9, Day 17 (10 days storage at 40° C., 7 days storage at 50° C.)) was 0.38%, the “alpha power (EEG) relative to placebo” value [3] was “suppressed” and the “delta and theta power (EEG) relative to placebo” value [3] was “normalized/increased”. The “pH following overnight storage” value ([4]; 20 mg/mL, ambient conditions, each solution) was “no changes from the initial pH values”, the appearance of solution ([4]; 20 mg/mL, pH 8) was “hazy” and the appearance of solution ([4]; 20 mg/mL, pH 9 and pH 10) was “contained a precipitate”. The content after filtration ([4]; each solution, including high pH solutions where precipitate was present) was “approximately the same content”, the “dissolution in test formulation” value ([4]; nominal 20 mg/mL in Britton-Robinson buffer, only swirling and shaking) was “very soluble” and the pH ([5]; nominal pH 7.0) was 6.10. The pH ([5]; nominal pH 9.0) was 7.70, the “drop in pH on preparation” value ([5]; pH 4 formulation) was 0.14 units and the “drop in pH on preparation” value ([5]; pH 9 formulation) was 1.29 units.
